Square brackets hold non-standard residues; d marks the D form. Peptide text beside a SMILES is read from it.
Tests used:
[1] = test system: CXCR4/CXCL12 induced p-MEK; test: CXCR4/CXCL12 induced p-MEK in Jurkat cells (ELISA); assay type: cell-based, human; settings: 5 nM CXCL12, 5 min
Description: The assay was performed following a protocol similar to that described by Peng, et al., Mol Cancer Ther., 14 480-90 (2015), incorporated herein by reference. […] Jurkat cells were resuspended in standard growth media (RPMI+GlutaMax media; Gibco/Thermo Fisher Scientific; Gaithersburg, Md.) containing 10% FBS and 1% penicillin/streptomycin. Assays were performed using fresh or conditioned media (media cultured overnight in presence of Jurkat cells) to resuspend cells at density of 2×10^6 cells/ml and […] of cell suspension was immediately placed in 1.7 ml microfuge tubes. […] Following the 5 min incubation, cells were centrifuged at 1000×g for 4 min at 4° C. The supernatant was removed and the cells were rinsed with 1 ml of HBSS containing calcium and magnesium. The HBSS was removed and the cells were immediately lysed in 150 l of lysis buffer included with Phospho-MEK1 (Ser217/221) Sandwich ELISA kit (Cell Signaling Technology; Danvers, Mass.); lysis buffer was supplemented with 1 m M PMSF (Millipore-Sigma; Saint Louis, Mo.) and Halt protease/phosphatase inhibitor cocktail (Thermo-Fisher; Waltham, Mass.) prior to use. The samples were then placed on ice for 10 min and vortexed periodically. Following the lysis step, the samples were centrifuged at 12,500 rpm for 10 min at 4° C. p-MEK expression in each of the samples was then measure using Phospho-MEK1 (Ser217/221) Sandwich ELISA kit according to manufacturer's instructions. Absorbance was measured using a Cytation 3 plate reader at […] (BioTek; Winooski, Vt.).

[2] = molecular target: human CXCR4 (Homo sapiens, UniProt P61073); test: CXCR4/CXCL12 binding, HTRF format, single concentration (Example 23); design: host or cells: HEK293 (Tag-lite CXCR4 cells, frozen aliquots, transient expression); settings: 15 nM CXCR4R fluorescent probe, 3 hours, HEK293 Tag-lite CXCR4 cells
Chain of human CXCR4 (P61073 whole entry): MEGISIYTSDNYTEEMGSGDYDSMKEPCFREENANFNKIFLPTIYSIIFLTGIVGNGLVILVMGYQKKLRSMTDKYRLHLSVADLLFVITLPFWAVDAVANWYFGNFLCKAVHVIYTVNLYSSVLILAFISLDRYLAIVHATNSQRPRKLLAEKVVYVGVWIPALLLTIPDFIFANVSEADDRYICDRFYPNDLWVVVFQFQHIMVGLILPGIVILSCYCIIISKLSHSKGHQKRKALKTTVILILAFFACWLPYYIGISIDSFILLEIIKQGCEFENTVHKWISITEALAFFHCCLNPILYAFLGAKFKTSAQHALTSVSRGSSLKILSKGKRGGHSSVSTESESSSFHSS
Description: Peptides were initially prepared as 1 mM stock in H2O and tested at a final concentration of 400 nM. Following the manufacture's protocol, a frozen aliquot of Tag-lite CXCR4 cells was thawed and immediately seeded onto 384-well plates in TLB. Immediately following the addition of cells, 400 nM peptide (final concentration) in TLB was added to the appropriate well. Then 15 nM (final concentration; EC80) of CXCR4R fluorescent probe was added to each well to initiate the HTRF assay. The plates were covered in aluminum foil and left at room temperature for 3 hours. Following the 3 hour incubation period, the plates were removed from the incubator and fluorescence measured using a Cytation 1 plate reader using a HTRF filter cube ([…]; BioTek; Winooski, Vt.). According manufacture's instruction data reduction was performed by calculating the ratio of 665 nm signal (TRF of 665 nm excitation by 620 emission; amount of CXCR4R fluorescent probe bound to terbium labeled CXCR receptor)/620 nm signal (620 excitation by 330 nm light source; normalization factor for amount of terbium labeled CXCR4 receptor in well)×10,000.

Row | Structure (SMILES) | Percent Inhibition of CXCR4/CXCL12 Binding (400 nM peptide) [2] [%] | Percent Inhibition of CXCR4/CXCL12 Induced p-MEK (100 nM Test Article) [1] [%] | Percent Inhibition of CXCR4/CXCL12 Induced p-MEK (1 μM Test Article) [1] [%]
1 | CC(C)C[C@H](NC(=O)[C@H](CO)NC(=O)[C@H](CO)NC(=O)[C@H](CCCNC(=N)N)NC(=O)[C@@H](C)NC(=O)[C@H](CO)NC(=O)[C@H](Cc1c[nH]cn1)NC(=O)[C@H](Cc1c[nH]cn1)NC(=O)[C@H](Cc1ccc(O)cc1)NC(=O)[C@H](CCCNC(=N)N)NC(=O)[C@H](CCC(=O)O)NC(=O)[C@@H](C)N)C(=O)N[C@@H](CCCNC(=N)N)C(=O)N1CCC[C@H]1C(=O)N[C@@H](Cc1ccc(O)cc1)C(=O)N[C@H](C(=O)N[C@@H](CCCCN)C(=O)O)[C@@H](C)O [compound 35] (H-[dA]ERYHHS[dA]RSSLRPYTK-OH; N-terminus and C-terminus assumed) | −13 | −7 | −6
2 | CC(C)C[C@H](NC(=O)[C@H](CO)NC(=O)[C@H](CO)NC(=O)[C@H](CC(=O)O)NC(=O)[C@@H](NC(=O)[C@H](CO)NC(=O)[C@H](Cc1c[nH]cn1)NC(=O)[C@H](Cc1c[nH]cn1)NC(=O)[C@H](Cc1ccc(O)cc1)NC(=O)[C@H](CCCNC(=N)N)NC(=O)[C@H](CCCNC(=N)N)NC(=O)[C@@H](N)CC(C)C)C(C)C)C(=O)N[C@@H](CCCNC(=N)N)C(=O)N1CCC[C@H]1C(=O)N[C@@H](Cc1ccc(O)cc1)C(=O)N[C@H](C(=O)N[C@@H](CCCCN)C(=O)O)[C@@H](C)O [compound 66] (H-LRRYHHSVDSSLRPYTK-OH; N-terminus and C-terminus assumed) | −5 | −7 | 13
3 | CC(C)C[C@H](NC(=O)[C@H](CO)NC(=O)[C@H](CO)NC(=O)[C@H](CCC(=O)O)NC(=O)[C@@H](NC(=O)[C@H](CO)NC(=O)[C@H](Cc1c[nH]cn1)NC(=O)[C@H](Cc1c[nH]cn1)NC(=O)[C@H](Cc1ccc(O)cc1)NC(=O)[C@H](CCCNC(=N)N)NC(=O)[C@H](CCCNC(=N)N)NC(=O)[C@@H](N)CC(C)C)C(C)C)C(=O)N[C@@H](CCCNC(=N)N)C(=O)N1CCC[C@H]1C(=O)N[C@@H](Cc1ccc(O)cc1)C(=O)N[C@H](C(=O)N[C@@H](CCCCN)C(=O)O)[C@@H](C)O [compound 62] (H-LRRYHHSVESSLRPYTK-OH; N-terminus and C-terminus assumed) | 4 |  | 
4 | CC(C)C[C@H](NC(=O)[C@H](CO)NC(=O)[C@H](CO)NC(=O)[C@H](CCCNC(=N)N)NC(=O)[C@@H](NC(=O)[C@H](CO)NC(=O)[C@H](Cc1c[nH]cn1)NC(=O)[C@H](Cc1c[nH]cn1)NC(=O)[C@H](Cc1ccc(O)cc1)NC(=O)[C@H](CCCNC(=N)N)NC(=O)[C@H](CCC(=O)O)NC(=O)[C@@H](N)CC(C)C)C(C)C)C(=O)N[C@@H](CCCNC(=N)N)C(=O)N1CCC[C@H]1C(=O)N[C@@H](Cc1ccc(O)cc1)C(=O)O [compound 19] (H-LERYHHSVRSSLRPY-OH; N-terminus and C-terminus assumed) | 44 |  | 
5 | CC(C)C[C@H](NC(=O)[C@H](CO)NC(=O)[C@H](CO)NC(=O)[C@H](CCCNC(=N)N)NC(=O)[C@@H](C)NC(=O)[C@H](CO)NC(=O)[C@H](Cc1c[nH]cn1)NC(=O)[C@H](Cc1c[nH]cn1)NC(=O)[C@H](Cc1ccc(O)cc1)NC(=O)[C@H](CCCNC(=N)N)NC(=O)[C@H](CCC(=O)O)NC(=O)[C@@H](N)CC(C)C)C(=O)N[C@@H](CCCNC(=N)N)C(=O)N1CCC[C@H]1C(=O)N[C@@H](Cc1ccc(O)cc1)C(=O)N[C@@H](CO)C(=O)N[C@@H](CCCCN)C(=O)O [compound 78] (H-LERYHHS[dA]RSSLRPYSK-OH; N-terminus and C-terminus assumed) | 72 | 29 | 46
6 | CC(C)C[C@H](NC(=O)[C@H](CO)NC(=O)[C@H](CO)NC(=O)[C@H](CCCNC(=N)N)NC(=O)[C@@H](C)NC(=O)[C@H](CO)NC(=O)[C@H](Cc1c[nH]cn1)NC(=O)[C@H](Cc1c[nH]cn1)NC(=O)[C@H](Cc1ccc(O)cc1)NC(=O)[C@H](CCCNC(=N)N)NC(=O)[C@H](CCCNC(=N)N)NC(=O)[C@@H](N)CC(C)C)C(=O)N[C@@H](CCC(=O)O)C(=O)N1CCC[C@H]1C(=O)N[C@@H](Cc1ccc(O)cc1)C(=O)N[C@H](C(=O)N[C@@H](CCCCN)C(=O)O)[C@@H](C)O [compound 65] (H-LRRYHHS[dA]RSSLEPYTK-OH; N-terminus and C-terminus assumed) | −5 |  | 

Continued, in another order:

Row | Percent Inhibition of CXCR4/CXCL12 Binding (400 nM peptide) [2] [%] | Structure (SMILES) | Percent Inhibition of CXCR4/CXCL12 Induced p-MEK (100 nM Test Article) [1] [%] | Percent Inhibition of CXCR4/CXCL12 Induced p-MEK (1 μM Test Article) [1] [%]
7 | 13 | CC(C)C[C@H](NC(=O)[C@H](CO)NC(=O)[C@H](CO)NC(=O)[C@H](CCCNC(=N)N)NC(=O)[C@@H](NC(=O)[C@H](CO)NC(=O)[C@H](Cc1c[nH]cn1)NC(=O)[C@H](CCC(N)=O)NC(=O)[C@H](Cc1ccc(O)cc1)NC(=O)[C@H](CCCNC(=N)N)NC(=O)[C@H](CCC(=O)O)NC(=O)[C@@H](N)CC(C)C)C(C)C)C(=O)N[C@@H](CCCNC(=N)N)C(=O)N1CCC[C@H]1C(=O)N[C@@H](Cc1ccc(O)cc1)C(=O)N[C@H](C(=O)N[C@@H](CCCCN)C(=O)O)[C@@H](C)O [compound 48] (H-LERYQHSVRSSLRPYTK-OH; N-terminus and C-terminus assumed) |  | 
8 | −4 | CC(C)C[C@H](NC(=O)[C@H](CO)NC(=O)[C@H](CO)NC(=O)[C@H](CCCNC(=N)N)NC(=O)[C@@H](C)NC(=O)[C@H](CO)NC(=O)[C@H](CC(N)=O)NC(=O)[C@H](Cc1c[nH]cn1)NC(=O)[C@H](Cc1ccc(O)cc1)NC(=O)[C@H](CCCNC(=N)N)NC(=O)[C@H](CCC(=O)O)NC(=O)[C@@H](N)CC(C)C)C(=O)N[C@@H](CCCNC(=N)N)C(=O)N1CCC[C@H]1C(=O)N[C@@H](Cc1ccc(O)cc1)C(=O)N[C@H](C(=O)N[C@@H](CCCCN)C(=O)O)[C@@H](C)O [compound 46] (H-LERYHNS[dA]RSSLRPYTK-OH; N-terminus and C-terminus assumed) |  | 
9 | 20 | CC(C)C[C@H](NC(=O)[C@H](CO)NC(=O)[C@H](CO)NC(=O)[C@H](CCCNC(=N)N)NC(=O)[C@@H](C)NC(=O)[C@H](CO)NC(=O)[C@H](Cc1c[nH]cn1)NC(=O)[C@H](CCC(N)=O)NC(=O)[C@H](Cc1ccc(O)cc1)NC(=O)[C@H](CCCNC(=N)N)NC(=O)[C@H](CCC(=O)O)NC(=O)[C@@H](N)CC(C)C)C(=O)N[C@@H](CCCNC(=N)N)C(=O)N1CCC[C@H]1C(=O)N[C@@H](Cc1ccc(O)cc1)C(=O)N[C@H](C(=O)N[C@@H](CCCCN)C(=O)O)[C@@H](C)O [compound 49] (H-LERYQHS[dA]RSSLRPYTK-OH; N-terminus and C-terminus assumed) |  | 

— patent publication US20220395553A1, “CXCR4 ANTAGONIST PEPTIDES” (COHBAR, INC., priority 2019, published 2022)
